Measured values taken from patent US10954214B2 (Janssen Pharmaceutica NV, priority 2016, dated 2021).

Assays:
[1] = molecular target: full-length MALT1 protein (Strep-MALT1(1-824)-His) (Homo sapiens (Human), UniProt Q9UDY8); test: MALT1 Biochemical Protease Assay (Ac-LRSR-AMC substrate); details: 10 nM FL MALT1, 200 μM Ac-LRSR-AMC, 4 h at RT; read-out: MALT1_Biochemical activity (Ac-LRSR-amc) IC50
Summary of the method: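 Full-length MALT1 pre-incubated with compounds (30 μM to 0.5 nM, 11 threefold steps) for 50 min at RT. After Ac-LRSR-AMC was added, the reaction ran 4 h at RT and AMC fluorescence was read. IC50 and Hill slope from curve fitting against no-enzyme and no-compound controls.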

[2] = tested on: IL10 secretion by OCI-LY3 ABC-DLBCL cells; test: Human IL10 Mesoscale assay (OCI-LY3); type: cell-based; details: Homo sapiens, 24 h
Protocol: (§1) NFKB signaling regulates the secretion of multiple cytokines, including IL6 and IL10. Secretion of the cytokines IL6 and IL10 by TMD8 or OCI-LY3 ABC-DLBCL cells was measured using a mesoscale assay. Inhibition of NFKB signaling by MALT1 or BTK inhibitors results in a decrease of IL6/10 secretion.
(§2) TMD8 or OCI-LY3 cells were propagated in RPMI-1640 (Sigma Aldrich) supplemented with 10% fetal bovine serum (HyClone), 1 mM sodium pyruvate (Invitrogen), 2 mM L-glutamine (Sigma Aldrich) and 1% PenStrep (Sigma Aldrich). Cell passage number should not exceed 30. Cells should be kept between 0.5-2.5 million cells per mL during culturing and cells should be supplemented every 2-3 days with fresh 50 μM beta-mercaptoenthanol. No beta-mercaptoethanol was used during the mesoscale assay.
(§3) For the Mesoscale assay, 100,000 TMD8 or OCI-LY3 cells were seeded per well into black-colored 96-well plates with clear bottom (Corning #3904) and test compounds were added in 9 dilution steps (1:2) ranging from 15 μM to 58.6 nM (final DMSO concentration 0.3%). DMSO control wells were used to determine the maximum signal (High Control (HC)). Treatment with the BTK inhibitor RN486 in a dose range from 30 nM to 131 pM (9 dilutions of 1:2) served as a positive control for NFKB pathway inhibition and was used to determine the maximum inhibition (Low Control (LC)). Compounds and cells were incubated for 24 h at 37° C. and 5% CO2 (assay volume is 150 μL). After 24 h of incubation 50 μL of the supernatant was transferred to a MSD plate (V-Plex Proinflammation Panel 1 (human) kit, Mesoscale (MSD)) and incubated for 2 h with vigorous shaking (600 rpm) at room temperature. Following incubation, plates were washed 3× with PBS+0.05% Tween-20 and 25 μL detection antibody solution (IL6 & IL10 antibodies in diluent 3 (MSD)) was added per well followed by 2 h of incubation with vigorous shaking (600 rpm) at room temperature. After 3× washes with PBS+0.05% Tween-20, plates were incubated with 150 μL 2× Read Buffer T and read on SECTOR imager.

[3] = tested on: IL6 secretion by OCI-LY3 ABC-DLBCL cells; test: Human IL6 Mesoscale assay (OCI-LY3); type: cell-based; details: Homo sapiens, 24 h
Protocol: as §1, §2, §3

full-length MALT1 protein (Strep-MALT1(1-824)-His), sequence (Q9UDY8 whole entry): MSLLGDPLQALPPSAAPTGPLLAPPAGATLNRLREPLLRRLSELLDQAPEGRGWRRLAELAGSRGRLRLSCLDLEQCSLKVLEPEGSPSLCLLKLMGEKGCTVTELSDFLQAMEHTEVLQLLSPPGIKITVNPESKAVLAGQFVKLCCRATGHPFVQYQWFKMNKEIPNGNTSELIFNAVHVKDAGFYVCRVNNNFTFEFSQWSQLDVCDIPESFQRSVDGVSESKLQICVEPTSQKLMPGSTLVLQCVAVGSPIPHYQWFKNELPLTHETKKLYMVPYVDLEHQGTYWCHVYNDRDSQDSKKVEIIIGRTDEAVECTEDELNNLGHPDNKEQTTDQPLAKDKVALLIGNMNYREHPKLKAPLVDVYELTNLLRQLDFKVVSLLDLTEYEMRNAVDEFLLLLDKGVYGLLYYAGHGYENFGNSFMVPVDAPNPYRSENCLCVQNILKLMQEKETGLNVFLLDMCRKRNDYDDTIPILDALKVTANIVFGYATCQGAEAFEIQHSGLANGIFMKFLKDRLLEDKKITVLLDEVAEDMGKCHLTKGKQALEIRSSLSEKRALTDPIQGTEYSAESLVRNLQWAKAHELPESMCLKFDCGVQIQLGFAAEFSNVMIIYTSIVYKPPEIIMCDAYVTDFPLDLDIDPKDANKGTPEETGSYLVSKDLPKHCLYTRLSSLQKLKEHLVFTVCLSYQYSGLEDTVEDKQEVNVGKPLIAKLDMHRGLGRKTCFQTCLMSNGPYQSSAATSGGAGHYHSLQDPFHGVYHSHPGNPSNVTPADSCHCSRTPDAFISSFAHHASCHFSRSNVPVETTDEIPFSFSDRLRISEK

SMILES | IC50 [1] | IC50 [2] | IC50 [3]
N#Cc1cc(NC(=O)c2cnn(-c3ccnc4cccnc34)c2C(F)(F)F)cnc1-n1nccn1 [Cpd 269, N-(5-cyano-6-(2H-1,2,3-triazol-2-yl)pyridin-3-yl)-1-(1,5-naphthyridin-4-yl)-5-(trifluoromethyl)-1H-pyrazole-4-carboxamide] | 155 nM | 85 nM | 83 nM
Cc1nc2c(-n3ncc(C(=O)Nc4cnc(-n5nccn5)c(C#N)c4)c3C(F)(F)F)cccc2o1 [Cpd 219, N-(5-cyano-6-(2H-1,2,3-triazol-2-yl)pyridin-3-yl)-1-(2-methylbenzo[d]oxazol-4-yl)-5-(trifluoromethyl)-1H-pyrazole-4-carboxamide] | 2690 nM | 126 nM | 102 nM
Cc1nc(-n2nccn2)c(C#N)cc1NC(=O)c1cnn(-c2cccc3scnc23)c1C(F)(F)F [Cpd 297, 1-(benzo[d]thiazol-4-yl)-N-(5-cyano-2-methyl-6-(2H-1,2,3-triazol-2-yl)pyridin-3-yl)-5-(trifluoromethyl)-1H-pyrazole-4-carboxamide] | 251 nM | 115 nM | 135 nM
CCOc1ncc(-n2ncc(C(=O)Nc3cnc(-n4nccn4)c(Cl)c3)c2C(F)(F)F)c2ccccc12 [Cpd 422, N-(5-chloro-6-(2H-1,2,3-triazol-2-yl)pyridin-3-yl)-1-(1-ethoxyisoquinolin-4-yl)-5-(trifluoromethyl)-1H-pyrazole-4-carboxamide] | 11 nM | 174 nM | 191 nM
Nc1nccc2c(-n3ncc(C(=O)Nc4cnc(-n5nccn5)c(Cl)c4)c3C(F)(F)F)cccc12 [Cpd 330, 1-(1-aminoisoquinolin-5-yl)-N-(5-chloro-6-(2H-1,2,3-triazol-2-yl)pyridin-3-yl)-5-(trifluoromethyl)-1H-pyrazole-4-carboxamide] | 646 nM | 25 nM | 21 nM
O=C(Nc1cnc(-n2nc3ccncc3n2)c(Cl)c1)c1cnn(-c2cccc3ncccc23)c1C(F)(F)F [Cpd 162, N-(6-(2H-[1,2,3]triazolo[4,5-c]pyridin-2-yl)-5-chloropyridin-3-yl)-1-(quinolin-5-yl)-5-(trifluoromethyl)-1H-pyrazole-4-carboxamide] | 363 nM | 309 nM | 437 nM
Cc1ncc(NC(=O)c2cnn(-c3cnc(N)c4ccccc34)c2C(F)(F)F)cc1C(F)(F)F [Cpd 377, 1-(1-aminoisoquinolin-4-yl)-N-(6-methyl-5-(trifluoromethyl)pyridin-3-yl)-5-(trifluoromethyl)-1H-pyrazole-4-carboxamide] | 457 nM | 56 nM | 52 nM
O=C(Nc1ccncc1)c1cnn(-c2cccc3c(=O)[nH]ccc23)c1C(F)(F)F [Cpd 349, 1-(1-oxo-1,2-dihydroisoquinolin-5-yl)-N-(pyridin-4-yl)-5-(trifluoromethyl)-1H-pyrazole-4-carboxamide] | 13500 nM | 60 nM | 79 nM
CNc1ncc(-n2ncc(C(=O)Nc3cnc(-n4nccn4)c(Cl)c3)c2C(F)(F)F)c2ccccc12 [Cpd 323, N-(5-chloro-6-(2H-1,2,3-triazol-2-yl)pyridin-3-yl)-1-(1-(methylamino)isoquinolin-4-yl)-5-(trifluoromethyl)-1H-pyrazole-4-carboxamide] | 174 nM | 141 nM | 195 nM
O=C(Nc1cnc(-n2nccn2)c(Cl)c1)c1cnn(-c2cnc(C(F)F)c3ccccc23)c1C(F)(F)F [Cpd 394, N-(5-chloro-6-(2H-1,2,3-triazol-2-yl)pyridin-3-yl)-1-(1-(difluoromethyl)isoquinolin-4-yl)-5-(trifluoromethyl)-1H-pyrazole-4-carboxamide] | 95 nM | 36 nM | 50 nM
COCc1cnnn1-c1ncc(NC(=O)c2cnn(-c3cccc4ncccc34)c2C(F)(F)F)cc1Cl [Cpd 253, N-(5-chloro-6-(5-(methoxymethyl)-1H-1,2,3-triazol-1-yl)pyridin-3-yl)-1-(quinolin-5-yl)-5-(trifluoromethyl)-1H-pyrazole-4-carboxamide] | 282 nM | 12600 nM | > 15100 nM
N#Cc1c(C(=O)Nc2cnc(-n3nccn3)c(Cl)c2)cnn1-c1cccc2ncccc12 [Cpd 186, N-(5-Chloro-6-(2H-1,2,3-triazol-2-yl)pyridin-3-yl)-5-cyano-1-(quinolin-5-yl)-1H-pyrazole-4-carboxamide] | 380 nM | 891 nM | 1120 nM
O=C1CCC(c2ncc(-n3ncc(C(=O)Nc4cnc(-n5nccn5)c(Cl)c4)c3C(F)(F)F)c3ccccc23)N1 (stereo not drawn) [Cpd 369, N-(5-chloro-6-(2H-1,2,3-triazol-2-yl)pyridin-3-yl)-1-(1-(5-oxopyrrolidin-2-yl)isoquinolin-4-yl)-5-(trifluoromethyl)-1H-pyrazole-4-carboxamide] | 155 nM | 29 nM | 34 nM
Nc1cnn(-c2ncc(NC(=O)c3cnn(-c4cccc5scnc45)c3C(F)(F)F)cc2Cl)n1 [Cpd 299, N-(6-(4-amino-2H-1,2,3-triazol-2-yl)-5-chloropyridin-3-yl)-1-(benzo[d]thiazol-4-yl)-5-(trifluoromethyl)-1H-pyrazole-4-carboxamide] | 105 nM | 309 nM | 537 nM
O=C(Nc1cnc(-n2ccnn2)c(Br)c1)c1cnn(-c2cccc3ncccc23)c1C(F)(F)F [Cpd 287, N-(5-bromo-6-(1H-1,2,3-triazol-1-yl)pyridin-3-yl)-1-(quinolin-5-yl)-5-(trifluoromethyl)-1H-pyrazole-4-carboxamide] | 95 nM | 234 nM | 229 nM
Cc1nc(-n2nccn2)c(Cl)cc1NC(=O)c1cnn(-c2cnc(N)c3ccccc23)c1C(F)(F)F [Cpd 180, 1-(1-aminoisoquinolin-4-yl)-N-(5-chloro-2-methyl-6-(2H-1,2,3-triazol-2-yl)pyridin-3-yl)-5-(trifluoromethyl)-1H-pyrazole-4-carboxamide] | 26 nM | 81 nM | 79 nM
O=C(Nc1cnc(-c2cn[nH]n2)c(Cl)c1)c1cnn(-c2cccc3ncccc23)c1C(F)(F)F [Cpd 309, N-(5-chloro-6-(2H-1,2,3-triazol-4-yl)pyridin-3-yl)-1-(quinolin-5-yl)-5-(trifluoromethyl)-1H-pyrazole-4-carboxamide] | 55 nM | 117 nM | 151 nM
Cc1ncc(-n2ncc(C(=O)Nc3cnc(-n4nccn4)c(Cl)c3)c2C(F)(F)F)c2ccsc12 [Cpd 434, N-(5-chloro-6-(2H-1,2,3-triazol-2-yl)pyridin-3-yl)-1-(7-methylthieno[2,3-c]pyridin-4-yl)-5-(trifluoromethyl)-1H-pyrazole-4-carboxamide] | 214 nM | 174 nM | 288 nM
O=C(Nc1cnc(-n2nnc3cnccc32)c(Cl)c1)c1cnn(-c2cccc3ncccc23)c1C(F)(F)F [Cpd 163, N-(6-(1H-[1,2,3]triazolo[4,5-c]pyridin-1-yl)-5-chloropyridin-3-yl)-1-(quinolin-5-yl)-5-(trifluoromethyl)-1H-pyrazole-4-carboxamide] | 224 nM | 71 nM | 95 nM
CN(C)C(=O)c1ncc(NC(=O)c2cnn(-c3cccc4c(=O)[nH]ccc34)c2C(F)(F)F)cc1Cl [Cpd 351, 3-chloro-N,N-dimethyl-5-(1-(1-oxo-1,2-dihydroisoquinolin-5-yl)-5-(trifluoromethyl)-1H-pyrazole-4-carboxamido)picolinamide] | 68 nM | 46 nM | 78 nM
COC(=O)c1ncc(NC(=O)c2cnn(-c3cccc4c(=O)[nH]ccc34)c2C(F)(F)F)cc1Cl [Cpd 355, methyl 3-chloro-5-(1-(1-oxo-1,2-dihydroisoquinolin-5-yl)-5-(trifluoromethyl)-1H-pyrazole-4-carboxamido)picolinate] | 10 nM | 407 nM | 912 nM
Cc1nc(-n2nccn2)c(Cl)cc1NC(=O)c1cnn(-c2cncc3sccc23)c1C(F)(F)F [Cpd 321, N-(5-chloro-2-methyl-6-(2H-1,2,3-triazol-2-yl)pyridin-3-yl)-1-(thieno[2,3-c]pyridin-4-yl)-5-(trifluoromethyl)-1H-pyrazole-4-carboxamide] | 21 nM | 49 nM | 66 nM
